Structures are written as SMILES.

A short description of this data set: gradient 5% acetonitrile 3 min, to 50% in 2 min, to 85% in 15 min, held 3 min, 100 µL/min. Conditions: column: Zorbax Extend-C18 2.1 x 50 mm; eluents: water / acetonitrile, 0.1% formic acid. In short, it runs like this:
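Over 3 months, pure standards in mixtures of ~100 molecules were run by HPLC coupled to a quadrupole time-of-flight mass spectrometer in positive and negative ionization mode. The column was a Zorbax Extend-C18 (2.1 × 50 mm, 1.8 μm) at 100 μL/min, eluted with water and acetonitrile each holding 0.1% formic acid, with 40 μL dead and 900 μL dwell volumes. Retention time was determined from adduct peaks chosen by software and checked manually.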
As for `CC(=O)Nc1ccc(C(=O)NCc2ccc(Br)cc2)c(N2CCOCC2)c1`, the RP-LC retention time stood at 785 s. `O=C(NCCc1cccs1)c1cc[nH]c1C1CCCNC1` (stereo not drawn): the RP-LC retention time is 614 s. `COc1ccc(C(=O)NCCS(=O)(=O)NCc2cccnc2)cc1` had an RP-LC retention time of 547 s. `O=C(Nc1ccccc1)C(=O)Nc1ccccc1[N+](=O)[O-]`: the RP-LC retention time came to 917 s. On to `O=C(Cn1cccc(-c2nc(-c3ccc(F)cc3)no2)c1=O)NC1CCCCC1`, for which the RP-LC retention time was 834 s. `CCc1ccc(NC(=O)Cn2nc(C(=O)N3CCOCC3)c3ccccc32)cc1` returned an RP-LC retention time of 822 s. `CC(C)N1C(=O)c2cccnc2Sc2cc(C(=O)N3CCCCC3)ccc21` gave an RP-LC retention time of 769 s. `Cc1ccc(Cl)cc1NC(=O)CSc1ccc(N2CCOCC2)nn1` registered an RP-LC retention time of 766 s. Next, `Cc1cc(C)c(S(=O)(=O)N2CCN(Cc3cccc(F)c3)C3(CCOCC3)C2)c(C)c1`: 973 s; `CCCN(CCC)c1ncc(NC(=O)c2ccc(Br)cc2)cc1C(=O)O`: 766 s; `Clc1ccc(-c2nc3ccccn3c2Nc2ccc3c(c2)OCO3)cc1`: 727 s. The compound `Cc1oc2c(c1C(=O)Nc1cccc(Br)c1)C1=NCCN1C=N2` returned an RP-LC retention time of 643 s. Next, `COc1ccc(NC(=O)c2cnc(N3CCN(C)CC3)nc2N)cc1`: 578 s.

As for `CCc1ccccc1NC(=O)C1CCN(S(C)(=O)=O)c2cc(C)ccc2O1` (stereo not drawn), the RP-LC retention time worked out at 880 s.

`CC(C)N1C(=O)c2cccnc2Sc2cc(NC(=O)c3ccoc3)ccc21`: the RP-LC retention time was 773 s. The compound `COCc1nc(C2CCN(C(=O)c3ccoc3)C2)no1` (stereo not drawn) showed an RP-LC retention time of 644 s. `Cc1ccc(C)c(S(=O)(=O)N2CCC(n3cnnc3C(C)C)CC2)c1` registered an RP-LC retention time of 768 s.

The compound `COc1cccc(-n2c(=O)c(C(=O)NCCc3cccs3)c(O)c3cccnc32)c1` showed an RP-LC retention time of 1160 s. Regarding `CC(C)N(C(=O)Cn1c(CN(C)C(=O)c2ccco2)nc2ccccc21)c1ccccc1`, the RP-LC retention time came to 725 s. As to `Cc1nc(-c2ccccc2)nc2c1CCC(=O)N2Cc1ccco1`, the RP-LC retention time was 1000 s. As for `Cc1ccsc1C(=O)Nc1ccccc1Sc1c(C)c(C)nc2nc(-c3ccccc3)nn12`, the RP-LC retention time came to 1120 s.

`CN(CCc1noc(C2CN(Cc3ccc(Cl)c(F)c3)C2)n1)S(C)(=O)=O` showed an RP-LC retention time of 633 s. Take `COc1ccc(NS(=O)(=O)c2ccc3c(c2)-c2oncc2CO3)c(OC)c1`: the RP-LC retention time came out at 852 s. In turn, `O=C(Cn1cnc2ccccc21)NCCOc1cccc2cccnc12` came in with an RP-LC retention time of 527 s. Compound `CCOc1cc(C(=O)NC2CCN(c3cc(-c4cccs4)[nH]n3)C2)cc(OCC)c1OCC` (stereo not drawn) displayed an RP-LC retention time of 839 s. Regarding `COc1ccc2c(c1)C1(CCN(C(=O)NCCc3ccccc3)C1)C(=O)N2` (stereo not drawn), the RP-LC retention time was found to be 750 s.

The compound `COc1ccc(N2CC(c3nc(-c4ccccn4)no3)CC2=O)cc1Cl` (stereo not drawn) yielded an RP-LC retention time of 724 s. In the case of `COc1ccc(OC)c(NC(=O)Cn2cnc3nc4c(cc3c2=O)CCCC4)c1`, the RP-LC retention time is 676 s. Take `Cc1ccc(S(=O)(=O)NC(C)c2nc(-c3ccc(-c4csc(C)n4)cc3)no2)cc1` (stereo not drawn): the RP-LC retention time was 1020 s. Compound `O=C(NC1CCN(c2cc(N3CCOCC3)cnn2)C1)c1ccc(Cl)s1` (stereo not drawn) came in with an RP-LC retention time of 610 s. In the case of `Cc1ccc(C(=O)NCc2ccc(N3CCCC3)nc2)s1`, the RP-LC retention time amounted to 601 s. Compound `CCN1C(=O)c2cccnc2Sc2cc(NC(=O)c3c(F)cccc3Cl)ccc21` came in with an RP-LC retention time of 850 s. As for `CCC1Oc2ccc(S(=O)(=O)N3CCC(C(=O)Nc4ccc(F)cc4)CC3)cc2NC1=O` (stereo not drawn), the RP-LC retention time is 866 s.

Source of the values: the METLIN SMRT retention time set (Domingo-Almenara et al. 2019).
